Test results published in PMC6316600, “Analgesic Activity of Acid-Sensing Ion Channel 3 (ASIС3) Inhibitors: Sea Anemones Peptides Ugr9-1 and APETx2 versus Low Molecular Weight Compounds” (Marine Drugs, 2018).
“Also recorded” adds a separate entry of the source. Bridge positions count the residues as written; N and C are the ends. Peptide text beside a SMILES is read from it.

How the values were obtained:
human ASIC3 = target: T1, human ASIC3 (Homo sapiens, UniProt Q9UHC3); experiment: Inhibition of sustained hASIC3 current, two-electrode voltage clamp, Xenopus laevis oocytes; type: cell-based; conditions: for Hill coefficient, sustained currents / IC50: hASIC3 in X. laevis oocytes, mean ± SEM (n = 4–6); for IC50: compound applied with 3.5 s pH stimulus, holding -50 mV, logistic fit, read-out: IC50, sustained currents
T1 construct: host or cells: Xenopus laevis oocytes (cRNA injection)
T1 sequence (Q9UHC3 1-531): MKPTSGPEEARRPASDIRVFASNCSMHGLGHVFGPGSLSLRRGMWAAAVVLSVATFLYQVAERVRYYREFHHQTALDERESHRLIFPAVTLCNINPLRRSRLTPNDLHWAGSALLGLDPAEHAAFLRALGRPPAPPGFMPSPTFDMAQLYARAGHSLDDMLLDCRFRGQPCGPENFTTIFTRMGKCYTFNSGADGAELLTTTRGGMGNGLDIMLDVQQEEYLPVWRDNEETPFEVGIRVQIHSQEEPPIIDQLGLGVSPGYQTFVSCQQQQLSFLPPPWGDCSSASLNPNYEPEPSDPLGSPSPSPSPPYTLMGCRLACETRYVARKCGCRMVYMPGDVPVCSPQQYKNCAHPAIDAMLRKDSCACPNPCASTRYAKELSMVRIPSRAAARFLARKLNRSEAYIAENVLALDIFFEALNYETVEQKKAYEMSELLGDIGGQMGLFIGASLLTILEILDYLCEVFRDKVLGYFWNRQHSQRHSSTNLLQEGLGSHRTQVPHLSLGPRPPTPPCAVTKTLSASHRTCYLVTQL
Source text: Whole-cell currents were induced by pH drops and recorded at the holding potential −50 mV. (A) Effect of ligands on the transient component of current at conditioning pH 7.8. The control trace is shown first; (B) Effect of ligands on the sustained component at conditioning pH 7.3. The black line is the control trace, and the red line is the trace of activation in the presence of a ligand. Dose-response curves for transient (C) and sustained (D) currents’ inhibitions are shown. Data are shown as mean ± SEM (n = 4–6) and fitted with the logistic equation (solid lines).
The analysis of a sustained component of the current was carried out in a bath solution (pH 7.3) where the transient component of the current was completely desensitized by protons. The pH activation stimulus (3.5 s) was applied in the presence of the testing compound (Figure 1B).
X. laevis oocytes were removed surgically and defolliculated by collagenase (Sigma-Aldrich, Moscow, Russia). Oocytes were injected with 2.5 to 10 ng of human ASIC3 cRNA (AF057711.1). […] To induce transient and/or sustained currents, two different protocols with different conditioning pH were used. Microelectrodes were filled with a 3 M KCl solution. The working buffer solution was ND-96 titrated by NaOH to pH 7.8 or 7.3. The solution for the pH shift was constructed based on the ND-96 solution, in which 5 mM HEPES was replaced with 10 mM acetic acid (pH 4.0) or 10 mM MES (pH 5.5) in a supplementary 0.1% BSA solution. The duration of the activation pulses was 3.5 s.
The analysis of the electrophysiological data was performed using the OriginPro 8.6 programme.

mice = experiment: Acetic acid-induced writhing; type: in vivo, CD-1 mice
Procedure: Acetic acid-induced writhing is based on irritation of tissues and organs of the abdomen by low pH and could be considered the most appropriate test for influence on acid-induced pain. […] It is interesting that the effects of sevanol and Ugr9-1 plateaued at a wide range of doses (0.01–1mg/kg for sevanol and 0.02–1 mg/kg Ugr9-1) (Figure 3C,D).
Figure 3 Effects of ligands in an acetic acid-induced writhing test. […] (A) Efficacy of ASIC3 antagonists at a dose of 1 mg/kg. (B–D) Dose-dependent chart of ligands’ effects: APETx2 (B), sevanol (C), and Ugr9-1 (D). Results are presented as mean ± SEM (n = 8). ** p < 0.01, *** p < 0.001 versus saline group (ANOVA followed by a Tukey’s test).
Adult male CD-1 mice (Animal Breeding Facility Branch of Shemyakin-Ovchinnikov Institute of Bioorganic Chemistry, Russian Academy of Sciences, Pushchino, Russia) weighing 20–25 g were used. Animals that originally passed clinical examination that confirmed no deviations in health were divided into groups (at least eight male mice per group) using the principle of randomization. The average body weight of animals in each group was not statistically different between groups. Animals were housed at room temperature (23 ± 2 °C) and subjected to a 12-h light-dark cycle with food and water available ad libitum. All experiments were performed after receiving approval from the Animal Care and Use Committee of the Branch of the Institute of Bioorganic Chemistry, Russian Academy of Sciences (IBCh RAS) (Pushchino, Russia Federation). The samples were administered intramuscularly 2 h before testing (4 h in the open field test). […]
Separate groups of mice were used. Writhes were caused 2 h after the intramuscular injection of the samples (saline for control mice) with the injection of 0.6% acetic acid in saline (10 mL/kg intraperitoneally). Mice were immediately placed inside transparent glass cylinders, and the latency of a first writhe and the number of writhes were recorded for 15 min.
The data significance in animal tests was determined by an analysis of variance followed by a Tukey’s test. Data are presented as the mean ± SEM.

[1] = intramuscular, 2 h before, n = 8

| SMILES | Rank of potency, sustained component inhibition (human ASIC3) | Inhibition of sustained current (in words) (human ASIC3; conditioning pH 7.3) | Hill coefficient, sustained currents (human ASIC3; conditioning pH 7.3) | inhibition at 50 µM (human ASIC3; pH 7.3, read-out: Inhibition of sustained current amplitude at saturation concentration) [%] | Effective dose, lower than that of APETx2, writhing test (mice; Ugr9-1 versus APETx2) [times] | Writhing test result (in words) (mice; intramuscular, 2 h before) | Dose of maximal effect, writhing test (mice; [1]) [mg/kg] | inhibition at 3000 µM (human ASIC3; about 3 mM, conditioning pH 7.3, read-out: Inhibition of sustained current amplitude at saturation concentration) [%] | IC50 (human ASIC3; conditioning pH 7.3) [µM] | Maximal effect of reducing pain, writhing test (mice; intramuscular, 2 h before, all doses) | Inhibition of sustained current amplitude at saturation concentration (human ASIC3; about 3 mM, conditioning pH 7.3) | Inhibition of sustained current (in words) (human ASIC3; conditioning pH 7.3, listed as Sevanol) | Inhibition of writhing (mice; 10 mg/kg intramuscular, 2 h before, n = 8) [%] | In vivo effect, compared with peptides (mice; sevanol versus APETx2 and Ugr9-1) |
| --- | --- | --- | --- | --- | --- | --- | --- | --- | --- | --- | --- | --- | --- | --- |
| CC[C@H](C)[C@H](N)C(=O)N[C@@H](CO)C(=O)N[C@H](C(=O)N[C@@H](CC(=O)O)C(=O)N1CCC[C@H]1C(=O)N1CCC[C@H]1C(=O)N[C@H]1CSSC[C@@H](C(=O)NCC(=O)N[C@@H](C)C(=O)N[C@H](C(=O)O)C(C)C)NC(=O)CNC(=O)[C@H](Cc2ccc(O)cc2)NC(=O)[C@H](C)NC(=O)[C@H](CC(=O)O)NC(=O)[C@H](Cc2ccc(O)cc2)NC(=O)[C@H](C(C)C)NC(=O)[C@@H]2CSSC[C@H](NC(=O)[C@H](Cc3ccccc3)NC(=O)[C@H](CCCNC(=N)N)NC1=O)C(=O)N[C@@H](Cc1ccc(O)cc1)C(=O)N[C@@H](Cc1c[nH]cn1)C(=O)N[C@@H](CCCNC(=N)N)C(=O)N[C@@H](CC(=O)O)C(=O)NCC(=O)N[C@@H](CO)C(=O)NCC(=O)N[C@@H](CC(N)=O)C(=O)N2)[C@@H](C)CC [Ugr9-1] (H-ISIDPPCRFCYHRDGSGNCVYDAYGCGAV-OH; disulfide 7-26, 10-19; N-terminus and C-terminus assumed) | Ugr9-1 > sevanol > diclofenac | decreased transient and sustained components of the current | 1.74 ± 0.51 | ~50 | 10 | attenuated the response to the intraperitoneal administration of acetic acid; also recorded: The most stable effect was produced by Ugr9-1, and it was slightly more significant in lower doses (0.002 mg/kg) | 0.02 | – | – | – | – | – | – | – |
| O=C(O)Cc1ccccc1Nc1c(Cl)cccc1Cl [diclofenac, reference compound] | Ugr9-1 > sevanol > diclofenac | significantly weaker in their inhibitory potency when compared to peptide toxin Ugr9-1 | – | – | – | – | – | ~50 | 856 ± 106 | ~ 75% | – | – | – | – |
| O=C(O)C[C@H](C(=O)O)[C@@H](OC(=O)C1=Cc2cc(O)c(O)cc2[C@@H](c2ccc(O)c(O)c2)[C@@H]1C(=O)O[C@@H](C(=O)O)[C@H](CC(=O)O)C(=O)O)C(=O)O [sevanol] | Ugr9-1 > sevanol > diclofenac | decreased transient and sustained components of the current | 2.4 ± 0.4 | – | – | attenuated the response to the intraperitoneal administration of acetic acid; also recorded: The efficacy of sevanol was also high | 10 | – | 259 ± 39 | – | approximately 50% | significantly weaker in their inhibitory potency when compared to peptide toxin Ugr9-1 | 76 | almost equipotent effect in vivo |
